Measured values as given in BindingDB's records for PubMed 39722476 (Nanjing University of Chinese Medicine).

Molecular target: Methylosome protein 50/Protein arginine N-methyltransferase 5 (Homo sapiens, UniProt O14744+Q9BQA1)
Test: Inhibition of recombinant N-terminal FLAG-tagged human full-length PRMT5/full length human MEP50 extracted from baculovirus expression system using [3H]-SAM as substrate preincubated for 15 mins followed by substrate addition and measured after 60 mins by multimode plate reader analysis

Sequence of Methylosome protein 50/Protein arginine N-methyltransferase 5 (O14744 whole entry): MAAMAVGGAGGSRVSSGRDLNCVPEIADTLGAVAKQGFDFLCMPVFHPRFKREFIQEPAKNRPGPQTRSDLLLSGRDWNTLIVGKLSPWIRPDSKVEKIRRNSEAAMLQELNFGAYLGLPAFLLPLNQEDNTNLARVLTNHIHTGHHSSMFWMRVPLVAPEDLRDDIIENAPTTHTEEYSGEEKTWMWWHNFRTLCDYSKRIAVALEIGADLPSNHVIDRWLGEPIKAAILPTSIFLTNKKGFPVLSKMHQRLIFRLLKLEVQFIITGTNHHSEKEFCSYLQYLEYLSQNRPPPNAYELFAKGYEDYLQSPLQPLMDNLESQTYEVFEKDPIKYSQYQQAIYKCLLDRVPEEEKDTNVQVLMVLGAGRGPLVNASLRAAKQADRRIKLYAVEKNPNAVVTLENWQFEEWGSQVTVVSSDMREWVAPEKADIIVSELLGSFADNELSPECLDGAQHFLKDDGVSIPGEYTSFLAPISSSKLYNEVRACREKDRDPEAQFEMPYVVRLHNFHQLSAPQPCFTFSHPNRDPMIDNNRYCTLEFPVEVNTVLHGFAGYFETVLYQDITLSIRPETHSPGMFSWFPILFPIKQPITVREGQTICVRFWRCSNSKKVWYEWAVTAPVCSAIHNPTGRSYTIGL
Sequence of Methylosome protein 50/Protein arginine N-methyltransferase 5 (Q9BQA1 whole entry): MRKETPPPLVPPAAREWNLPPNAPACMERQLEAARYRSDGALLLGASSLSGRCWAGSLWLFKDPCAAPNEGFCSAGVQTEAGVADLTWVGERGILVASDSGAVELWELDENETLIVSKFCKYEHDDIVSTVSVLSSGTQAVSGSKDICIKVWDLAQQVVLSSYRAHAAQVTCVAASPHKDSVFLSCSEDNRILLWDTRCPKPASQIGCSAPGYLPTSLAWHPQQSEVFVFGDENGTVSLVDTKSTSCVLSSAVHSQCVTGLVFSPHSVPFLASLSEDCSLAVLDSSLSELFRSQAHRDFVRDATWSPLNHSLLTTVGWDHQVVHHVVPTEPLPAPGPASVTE

Which IC50 does the source give for `CC(=O)N1CCC(Nc2cc3c(cn2)C2(CC2)CN(C[C@H](O)CN2CCc4ccccc4C2)C3=O)CC1` [US20240116918, Example 1] here?
Its IC50 is 33 nM.
